# Data reported in patent US20140228312A1, “ANTIBIOTIC COMPOSITION AND ITS USES” (Agency for Science, Technology and Research, priority 2011, published 2014).
# What was measured:
# B. cereus [1] = assay: MIC assay, antibiotic with or without DSF-family molecules; format: cell-based, Bacillus cereus; conditions: for MIC of Gentamicin, Mean: gentamicin alone (MeOH control, no DSF-family molecule)
# Experimental: (§1) Minimum inhibitory concentration (MIC) was determined according to the 2003 guidelines of Clinical and Laboratory Standards Institute (CLSI) using 96-well microtiter plates. The two-fold dilution series of antibacterial agents or antibiotics were prepared with distilled water, methanol, or dimethyl sulfoxide (DMSO). Overnight cultures of bacteria were inoculated at an OD600 of 0.025 in Luria-Bertani (LB) broth supplemented with the respective antibiotic in the absence or presence of DSF-family molecules (Table 1). One hundred microliters of inoculated culture were grown in each well at 37° C. with shaking at 150 rpm for 24 hours. MIC was defined as the lowest concentration of antibiotic in which bacterial growth in the well was not measureable by determination of the turbidity at 600 nm.
# B. cereus [2] = assay: Bacterial growth analysis (Bioscreen-C); format: cell-based, Bacillus cereus; conditions: final concentration of 50 μM, no antibiotic
# Experimental: (§2) Overnight bacterial cultures grown in LB broth was inoculated in the same medium to an OD600 of 0.025; the medium was supplemented with a respective antibiotic and DSF-family signals were added in a final concentration of 50 μM or otherwise indicated. Three hundred microliters of inoculated culture were grown in each well at 37° C. in a low intensity shaking model using the Bioscreen-C Automated Growth Curves Analysis System (OY Growth Curves AB Ltd, Finland).
# B. thuringiensis = assay: MIC assay, antibiotic with or without DSF; format: cell-based, Bacillus thuringiensis; conditions: DSF 50 μM
# Experimental: as §1
# N. subflava = assay: MIC assay, antibiotic with or without DSF; format: cell-based, Neisseria subflava; conditions: DSF 50 μM
# Experimental: as §1
# [3] = tested on: P. aeruginosa strain PAO1; assay: Bacterial growth analysis (Bioscreen-C); format: cell-based, Pseudomonas aeruginosa
# Experimental: as §2
# P. aeruginosa is a major source of opportunistic infections in both immunocompromised individuals and cystic fibrosis patients (Bodey et al., 1983; Richards et al., 2000). It appeared to be less responsive to DSF than other tested bacterial pathogen in our preliminary MIC assay. We therefore used the Bioscreen-C Automated Growth Curves Analysis System to determine the synergistic effect of DSF with antibiotics. Gentamicin and kanamycin were added to the culture of P. aeruginosa strain PAO1 at a final concentration of 2 nM and 0.2 μM, respectively, in the absence and presence of 50 μM DSF.
# S. aureus = assay: MIC assay, antibiotic with or without DSF; format: cell-based, Staphylococcus aureus; conditions: DSF 50 μM
# Experimental: as §1
# M. smegmatis = assay: MIC assay, antibiotic with or without DSF; format: cell-based, Mycobacterium smegmatis; conditions: DSF 50 μM
# Experimental: as §1
# [4] = 50 μM DSF-family molecule vs MeOH control
molecule,measurement,setting,value
CCCCC/C=C\C(=O)O [Compound C8],Fold Change of MIC of Ampicillin,B. cereus [1]; [4],0
same,Fold Change of MIC of Kanamycin,B. cereus [1]; [4],2
same,Fold Change of MIC of Rifampicin,B. cereus [1]; [4],2
same,Fold change of MIC of Gentamicin,B. cereus [1]; [4],0
CCCCCCC/C=C\C(=O)O [Compound C10],Fold Change of MIC of Ampicillin,B. cereus [1]; [4],0
same,Fold Change of MIC of Kanamycin,B. cereus [1]; [4],4
same,Fold Change of MIC of Rifampicin,B. cereus [1]; [4],2.6
same,Fold change of MIC of Gentamicin,B. cereus [1]; [4],2
CCCCCCCC/C=C\C(=O)O [Compound C11],Fold Change of MIC of Kanamycin,B. cereus [1]; [4],16
same,Fold Change of MIC of Rifampicin,B. cereus [1]; [4],4
same,Fold change of MIC of Gentamicin,B. cereus [1]; [4],16
CCCCCCCCC/C=C\C(=O)O [Compound C12],effect on bacterial growth rate,B. cereus [2],did not affect the bacterial growth rate
same,Fold Change of MIC of Ampicillin,B. cereus [1]; [4],0
same,Fold Change of MIC of Kanamycin,B. cereus [1]; [4],4
same,Fold Change of MIC of Rifampicin,B. cereus [1]; [4],2.6
same,Fold change of MIC of Gentamicin,B. cereus [1]; [4],8
CCCCCCCCCC/C=C\C(=O)O [Compound C13],effect on bacterial growth rate,B. cereus [2],did not affect the bacterial growth rate
same,Fold Change of MIC of Kanamycin,B. cereus [1]; 5 μM C13 vs MeOH,2
same,Fold change of MIC of Gentamicin,B. cereus [1]; 5 μM C13 vs MeOH,0
same,Fold Change of MIC of Kanamycin,B. cereus [1]; 10 μM C13 vs MeOH,2
same,Fold change of MIC of Gentamicin,B. cereus [1]; 10 μM C13 vs MeOH,2
same,Fold Change of MIC of Kanamycin,B. cereus [1]; 20 μM C13 vs MeOH,8
same,Fold change of MIC of Gentamicin,B. cereus [1]; 20 μM C13 vs MeOH,4
same,Fold Change of MIC of Kanamycin,B. cereus [1]; 30 μM C13 vs MeOH,8
same,Fold change of MIC of Gentamicin,B. cereus [1]; 30 μM C13 vs MeOH,8
same,Fold Change of MIC of Kanamycin,B. cereus [1]; 40 μM C13 vs MeOH,16
same,Fold change of MIC of Gentamicin,B. cereus [1]; 40 μM C13 vs MeOH,21.3
same,Fold Change of MIC of Kanamycin,B. cereus [1]; 50 μM C13 vs MeOH,16
same,Fold change of MIC of Gentamicin,B. cereus [1]; 50 μM C13 vs MeOH,32
same,Fold Change of MIC of Ampicillin,B. cereus [1]; [4],0
same,Fold Change of MIC of Kanamycin,B. cereus [1]; [4],16
same,Fold Change of MIC of Rifampicin,B. cereus [1]; [4],2.6
same,Fold change of MIC of Gentamicin,B. cereus [1]; [4],32
CCCCCCCCCCC/C=C\C(=O)O [Compound C14],Fold Change of MIC of Ampicillin,B. cereus [1]; [4],0
same,Fold Change of MIC of Kanamycin,B. cereus [1]; [4],32
same,Fold Change of MIC of Rifampicin,B. cereus [1]; [4],2
same,Fold change of MIC of Gentamicin,B. cereus [1]; [4],32
CCCCCCCCCCCC/C=C\C(=O)O [Compound C15],drug adjuvant with ampicillin,B. cereus [1]; 50 μM DSF-family molecule,best drug adjuvant with ampicillin
same,Fold Change of MIC of Kanamycin,B. cereus [1]; [4],32
same,Fold Change of MIC of Rifampicin,B. cereus [1]; [4],4
same,Fold change of MIC of Gentamicin,B. cereus [1]; [4],128
CCCCCCCCCCCC(=O)O [Compound S12],Fold Change of MIC of Ampicillin,B. cereus [1]; [4],0
same,Fold Change of MIC of Kanamycin,B. cereus [1]; [4],8
same,Fold Change of MIC of Rifampicin,B. cereus [1]; [4],2
same,Fold change of MIC of Gentamicin,B. cereus [1]; [4],4
CCCCC/C=C/C(=O)O [Compound T8],Fold Change of MIC of Ampicillin,B. cereus [1]; [4],0
same,Fold Change of MIC of Kanamycin,B. cereus [1]; [4],2
same,Fold Change of MIC of Rifampicin,B. cereus [1]; [4],0
same,Fold change of MIC of Gentamicin,B. cereus [1]; [4],0
CCCCCCC/C=C/C(=O)O [Compound T10],Fold Change of MIC of Ampicillin,B. cereus [1]; [4],0
same,Fold Change of MIC of Kanamycin,B. cereus [1]; [4],4
same,Fold Change of MIC of Rifampicin,B. cereus [1]; [4],2
same,Fold change of MIC of Gentamicin,B. cereus [1]; [4],2
CCCCCCCC/C=C/C(=O)O [Compound T11],Fold Change of MIC of Kanamycin,B. cereus [1]; [4],8
same,Fold Change of MIC of Rifampicin,B. cereus [1]; [4],2.6
same,Fold change of MIC of Gentamicin,B. cereus [1]; [4],16
CCCCCCCCC/C=C/C(=O)O [Compound T12],Fold Change of MIC of Ampicillin,B. cereus [1]; [4],0
same,Fold Change of MIC of Kanamycin,B. cereus [1]; [4],16
same,Fold Change of MIC of Rifampicin,B. cereus [1]; [4],1.3
same,Fold change of MIC of Gentamicin,B. cereus [1]; [4],21.3
CCCCCCCCCC/C=C/C(=O)O [Compound T13],Fold Change of MIC of Ampicillin,B. cereus [1]; [4],0
same,Fold Change of MIC of Kanamycin,B. cereus [1]; [4],5.3
same,Fold Change of MIC of Rifampicin,B. cereus [1]; [4],2
same,Fold change of MIC of Gentamicin,B. cereus [1]; [4],8
CCCCCCCCCCC/C=C/C(=O)O [Compound T14],synergistic activity with kanamycin,B. cereus [1]; 50 μM DSF-family molecule,strongest synergistic activity
same,Fold Change of MIC of Kanamycin,B. cereus [1]; [4],64
same,Fold Change of MIC of Rifampicin,B. cereus [1]; [4],1.3
same,Fold change of MIC of Gentamicin,B. cereus [1]; [4],128
CCCCCCCCCCCC/C=C/C(=O)O [Compound T15],Fold Change of MIC of Ampicillin,B. cereus [1]; [4],0
same,Fold Change of MIC of Kanamycin,B. cereus [1]; [4],2
same,Fold Change of MIC of Rifampicin,B. cereus [1]; [4],2
same,Fold change of MIC of Gentamicin,B. cereus [1]; [4],0
"CC(C)CCCCCCC/C=C\C(=O)O [DSF, cis 11-methyl-2-dodecenoic acid]",decrease of MIC of ampicillin,B. thuringiensis,75%
same,decrease of MIC of gentamicin,B. thuringiensis,93.75%
same,decrease of MIC of kanamycin,B. thuringiensis,93.75%
same,decrease of MIC of rifampicin,B. thuringiensis,75%
same,effect on MIC of ampicillin,N. subflava,did not affect
same,effect on MIC of rifampicin,N. subflava,did not affect
same,reduction of MIC of gentamicin,N. subflava,about 50%
same,reduction of MIC of kanamycin,N. subflava,about 50%
same,effect on bacterial growth rate,B. cereus [2],did not affect the bacterial growth rate
same,effect on susceptibility to gentamicin,[3]; 50 μM DSF + gentamicin 2 nM,enhanced the susceptibility
same,delay of bacterial growth,[3]; 50 μM DSF + gentamicin 2 nM vs gentamicin alone,6 h
same,effect on susceptibility to kanamycin,[3]; 50 μM DSF + kanamycin 0.2 μM,enhanced the susceptibility
same,delay of bacterial growth,[3]; 50 μM DSF + kanamycin 0.2 μM vs kanamycin alone,8 h
same,effect on growth rate,"[3]; 50 μM DSF, no antibiotic",did not affect the growth rate
same,reduction of MIC of ampicillin,S. aureus,50%
same,reduction of MIC of gentamicin,S. aureus,50%
same,reduction of MIC of kanamycin,S. aureus,50%
same,Fold Change of MIC of Kanamycin,B. cereus [1]; 5 μM DSF vs MeOH,1.3
same,Fold change of MIC of Gentamicin,B. cereus [1]; 5 μM DSF vs MeOH,2
same,Fold Change of MIC of Kanamycin,B. cereus [1]; 10 μM DSF vs MeOH,2
same,Fold change of MIC of Gentamicin,B. cereus [1]; 10 μM DSF vs MeOH,2
same,Fold Change of MIC of Kanamycin,B. cereus [1]; 20 μM DSF vs MeOH,2
same,Fold change of MIC of Gentamicin,B. cereus [1]; 20 μM DSF vs MeOH,5.3
same,Fold Change of MIC of Kanamycin,B. cereus [1]; 30 μM DSF vs MeOH,5.3
same,Fold change of MIC of Gentamicin,B. cereus [1]; 30 μM DSF vs MeOH,8
same,Fold Change of MIC of Kanamycin,B. cereus [1]; 40 μM DSF vs MeOH,5.3
same,Fold change of MIC of Gentamicin,B. cereus [1]; 40 μM DSF vs MeOH,16
same,Fold Change of MIC of Kanamycin,B. cereus [1]; 50 μM DSF vs MeOH,16
same,Fold change of MIC of Gentamicin,B. cereus [1]; 50 μM DSF vs MeOH,16
same,Fold Change of MIC of Ampicillin,B. cereus [1]; [4],0
same,Fold Change of MIC of Kanamycin,B. cereus [1]; [4],16
same,Fold Change of MIC of Rifampicin,B. cereus [1]; [4],2
same,Fold change of MIC of Gentamicin,B. cereus [1]; [4],16
same,enhancement of susceptibility to gentamicin,M. smegmatis,50%
same,enhancement of susceptibility to kanamycin,M. smegmatis,25%
same,enhancement of susceptibility to trimethoprim,M. smegmatis,50%
"NC[C@H]1O[C@H](O[C@H]2[C@H](O)[C@@H](O[C@H]3O[C@H](CO)[C@@H](O)[C@H](N)[C@H]3O)[C@H](N)C[C@@H]2N)[C@H](O)[C@@H](O)[C@@H]1O [Kanamycin, kanamycin, reference compound]",time of recovery of bacterial growth,[3]; kanamycin 0.2 μM alone,22 hour post inoculation
gentamicin [reference compound],time of recovery of bacterial growth,[3]; gentamicin 2 nM alone,10 hour post inoculation
same,"MIC of Gentamicin, Mean",B. cereus [1],8 µg/mL
same,"MIC of Gentamicin, Mean",B. cereus [1]; listed as gentamicin,8.0 µg/mL
